# Laboratory results: patent publication US20220267380A1, “Glycopeptides Increasing Lipid Synthesis” (TFCHEM, priority 2019, published 2022)
# System: normal human dermal fibroblasts (NHDF)
# Assay: Microscopic observations of human dermal fibroblasts in culture (formation of lipid vesicles)
# Type: cell-based
# Details: 48 h, vs untreated cells
# Protocol: Normal human dermal fibroblasts (NHDF) were grown with Dulbecco's Modified Eagle
# Medium (DMEM) supplemented with Fetal Calf Serum (FCS) 10%, antibiotics (Penicillin 50 U/ml—Streptomycin 50 μg/ml) and L-Glutamine 2 mM final. Cells were grown in 37° C. and 5% CO2 incubator.
# Fibroblasts were seeded in 24-well plates and cultured in culture medium for 24 hours. The medium was then replaced by assay medium and cells were incubated for further 24 hours. For the assay, the medium was replaced by assay medium containing or not (control) the test compound at different concentrations. After 48 h the morphological observations were evaluated.
Compound,morphological observation of fibroblasts (10 mg/ml),morphological observation of fibroblasts (20 mg/ml),morphological observation of fibroblasts (13 mg/ml)
C[C@H](NC(=O)[C@H](C)NC(=O)[C@@H](N)CCCCNCC(F)(F)[C@]1(O)O[C@H](CO)[C@H](O)[C@H](O)[C@H]1O)C(=O)O [Compound 1],no effect,induced the formation of lipid vesicles in fibroblasts,
CC(=O)N(CCCC[C@H](N)C(=O)O)CC(F)(F)[C@]1(O)O[C@H](CO)[C@H](O)[C@H](O)[C@H]1O [Compound 4],,,induces the formation of lipid vesicles in fibroblasts and cell swelling
